Data set [1] relates to MES SA (uterine sarcoma cell line). Briefly: In vitro cytotoxicity assay (CellTiter-Glo, 72 hours), MES SA. It is filed as cell-based. The settings on record: Homo sapiens, MES-SA. For orientation: In ATP-based viability assays light output follows the ATP content of the culture.
Data set [2] deals with MES SA, MES SA DX and HEK 293T cells. Briefly: In vitro cytotoxicity assay, structure-activity discussion over the cell lines tested. The conditions noted are these: refers to Tables 2 and 3.
Data set [3] relates to HEK 293T (human embryonic kidney cancer cell line). Briefly: In vitro cytotoxicity assay (CellTiter-Glo, 72 hours), HEK 293T. It is filed as cell-based. The conditions noted are these: Homo sapiens, HEK-293T.
Data set [4] concerns MES SA DX (MES SA cell line with marked multi-drug resistance). Briefly: In vitro cytotoxicity assay (CellTiter-Glo, 72 hours), MES SA DX. The conditions noted are these: for IC50: Homo sapiens, MES-SA, 72 h.
The mark [5] stands for this setting: 72 h, read-out: MES SA, IC50 Value in nM.
Where [6] appears, read: 72 h, read-out: HEK 293T, IC50 Value in nM.
Where [7] appears, read: read-out: MES SA DX, IC50 Value in nM.

Read-outs that look alike come from different tables or passages of the source.

By IC50 is commonly meant the concentration that inhibits the measured activity by half.

For the molecule `COC(=O)[C@@H](C)C[C@H](Cc1ccccc1)NC(=O)c1nc([C@@H](C[C@H](C(C)C)N(C)C(=O)[C@@H](NC(=O)[C@H]2CCCCN2C)C(C)C)OC(C)=O)sc1C(C)C` [Tb72, Methyl (2S,4R)-4-[({2-[(1R,3R)-1-acetoxy-4-methyl-3-{methyl[(2S)-3-methyl-2-({[(2R)-1-methyl-piperidin-2-yl]carbonyl}amino)butanoyl]amino}pentyl]-5-isopropyl-1,3-thiazol-4-yl}carbonyl)-amino]-2-methyl-5-phenylpentanoate], the values for the IC50 in data set [1] (setting [5]), in data set [3] (setting [6]) and in data set [4] (setting [7]) were 11.7 nM, 4.02 nM and more than 70 nM, respectively. Further, the “cytotoxicity potency (in words, structure-activity discussion)” value (shortened to “cytotoxicity potency”) in data set [2] is on record as “significant loss of potency”.
Turning to `CCOC(=O)[C@@H](C)C[C@H](Cc1ccccc1)NC(=O)c1csc([C@@H](C[C@H](C(C)C)N(C)C(=O)[C@@H](NC(=O)[C@H]2CCCCN2C)C(C)(C)C)OC(C)=O)n1` [Tb106, Ethyl (2S,4R)-4-[({2-[(1R,3R)-1-acetoxy-3-{[(2S)-3,3-dimethyl-2-({[(2R)-1-methylpiperidin-2-yl]car-bonyl}amino)butanoyl](methyl)amino}-4-methylpentyl]-1,3-thiazol-4-yl}carbonyl)amino]-2-methyl-5-phenylpentanoate], the IC50 turned out to be 0.12 nM in data set [1] (72 h, read-out: MES SA, IC50); 0.12 nM in data set [1] (setting [5]); 0.13 nM in data set [3] (72 h, read-out: HEK 293T, IC50); 0.13 nM in data set [3] (setting [6]); 2.73 nM in data set [4] (read-out: MES SA DX, IC50); 2.73 nM in data set [4] (setting [7]). Further, the “cytotoxicity potency” value in data set [2] was “exceptional potencies”.
Consider `CCCCN1CCCC[C@@H]1C(=O)N[C@H](C(=O)N(C)[C@H](CCc1nc(C(=O)N[C@@H](Cc2ccccc2)C[C@H](C)C(=O)OC)cs1)C(C)C)C(C)C` [PTb-D49], for which the IC50 in data set [1] (Table 2, 72 hours, CellTiter-Glo, read-out: MES SA, IC50 Value in nM) was more than 1000 nM; in data set [3] (Table 2, 72 hours, CellTiter-Glo, read-out: HEK 293T, IC50 Value in nM) it was more than 1000 nM; in data set [4] (setting [7]), more than 1000 nM. Further, in data set [2], the “cytotoxicity potency” value is on record as “insignificant or low biological activity”.
Take `CCCCN1CCCC[C@@H]1C(=O)N[C@H](C(=O)N(C)[C@H](C[C@@H](OC(C)=O)c1nc(C(=O)N[C@H]2CC[C@H](C(=O)O)CC2)cs1)C(C)C)C(C)C` [Tb55, trans-4-[({2-[(1R,3R)-1-Acetoxy-3-{[(2S)-2-({[(2R)-1-butylpiperidin-2-yl]carbonyl}amino)-3-methylbutanoyl](methyl)amino}-4-methylpentyl]-1,3-thiazol-4-yl}carbonyl)amino]cyclohexanecarboxylic acid]: the half-inhibitory concentration (IC50) in data set [1] (setting [5]), in data set [3] (setting [6]) and in data set [4] (setting [7]) was more than 1000 nM each time. For the same molecule, the “cytotoxicity potency” value in data set [2] is reported as “insignificant or low biological activity”.
Consider `CCCC[C@H](NC(=O)[C@H]1CCCN1C)C(=O)N(C)[C@H](C[C@@H](OC(C)=O)c1nc(C(=O)N[C@@H](Cc2ccccc2)C[C@H](C)C(=O)OCC)cs1)C(C)C` [Tb96, Ethyl (2S,4R)-4-[({2-[(1R,3R)-1-acetoxy-4-methyl-3-{methyl[(2S)-2-({[(2R)-1-methylpyrrolidin-2-yl]carbonyl}amino)hexanoyl]amino}pentyl]-1,3-thiazol-4-yl}carbonyl)amino]-2-methyl-5-phenylpentanoate], for which the concentration for half-maximal inhibition (IC50) in data set [1] (setting [5]) is 10.5 nM; in data set [3] (setting [6]), 5.26 nM; in data set [4] (setting [7]), more than 1000 nM. Further, the “cytotoxicity potency” value in data set [2] is given as “lack of or significantly lower cytotoxicities”.
In the case of `CC(C)[C@H](NC(=O)[C@H]1CCCCN1C)C(=O)N(C)[C@H](C[C@@H](O)c1nc(C(=O)N[C@@H](Cc2ccccc2)C[C@H](C)C(=O)O)cs1)C(C)C` [Tb60, (2S,4R)-4-[({2-[(1R,3R)-1-Hydroxy-4-methyl-3-{methyl[(2S)-3-methyl-2-({[(2R)-1-methylpiperidin-2-yl]carbonyl}amino)butanoyl]amino}pentyl]-1,3-thiazol-4-yl}carbonyl)amino]-2-methyl-5-phenylpentanoic acid], the figures for the IC50 in data set [1] (setting [5]), in data set [3] (setting [6]) and in data set [4] (setting [7]) were 14 nM, 6.34 nM and more than 2500 nM, respectively. Also, in data set [2], the “cytotoxicity potency” value is “significant reduction in potency”.
The matching figures for `CCOC(=O)[C@@H](C)C[C@H](Cc1ccccc1)NC(=O)c1csc([C@@H](C[C@H](C(C)C)N(C)C(=O)CNC(=O)[C@H]2CCCCN2C)OC(C)=O)n1` [Tb88, Ethyl (2S,4R)-4-[({2-[(1R,3R)-1-acetoxy-4-methyl-3-{methyl[({[(2R)-1-methylpiperidin-2-yl]carbonyl}amino)acetyl]amino}pentyl]-1,3-thiazol-4-yl}carbonyl)amino]-2-methyl-5-phenylpentanoate]: 458 nM, 494 nM, more than 2500 nM and “no significant activity”.
As for `CCC(C)(C)[C@H](NC(=O)[C@H]1CCCCN1C)C(=O)N(C)[C@H](C[C@@H](OC(C)=O)c1nc(C(=O)N[C@@H](Cc2ccccc2)C[C@H](C)C(=O)O)cs1)C(C)C` [Tb109, (2S,4R)-4-[({2-[(1R,3R)-1-Acetoxy-3-{[(2S)-3,3-dimethyl-2-({[(2R)-1-methylpiperidin-2-yl]car-bonyl}amino)pentanoyl](methyl)amino}-4-methylpentyl]-1,3-thiazol-4-yl}carbonyl)amino]-2-methyl-5-phenylpentanoic acid], the IC50 in data set [1] (72 h, read-out: MES SA, IC50) worked out at 0.36 nM; in data set [1] (setting [5]), 0.36 nM; in data set [3] (72 h, read-out: HEK 293T, IC50), 0.01 nM; in data set [3] (setting [6]), 0.01 nM; in data set [4] (read-out: MES SA DX, IC50), 1.39 nM; in data set [4] (setting [7]), 1.39 nM. The “cytotoxicity potency” value in data set [2] was “exceptional potencies”. Moreover, the “cytotoxicities against the marked drug resistant cancer cell line MES SA DX (in words)” value in data set [4] is “relatively potent (low nanomolar)”.
Consider `CC(C)[C@H](NC(=O)[C@H]1CCCCN1C)C(=O)N(C)[C@H](CC(=O)c1nc(C(=O)N[C@@H](Cc2ccccc2)C[C@H](C)C(=O)O)cs1)C(C)C` [Tb62, (2S,4R)-2-Methyl-4-[({2-[(3R)-4-methyl-3-{methyl[(2S)-3-methyl-2-({[(2R)-1-methylpiperidin-2-yl]-carbonyl}amino)butanoyl]amino}pentanoyl]-1,3-thiazol-4-yl}carbonyl)amino]-5-phenylpentanoic acid], for which the IC50 in data set [1] (setting [5]), in data set [3] (setting [6]) and in data set [4] (setting [7]) was more than 1000 nM each time. In data set [2], the “cytotoxicity potency” value is reported as “significant reduction in potency”.
With `COC(=O)C12CC(NC(=O)c3csc([C@@H](C[C@H](C(C)C)N(C)C(=O)[C@@H](NC(=O)[C@H]4CCCCN4C)C(C)C)OC(C)=O)n3)(C1)C2` [Tb102, Methyl 3-{[(2-{1-acetoxy-4-methyl-3-[methyl(3-methyl-2-{[(1-methylpiperidin-2-yl)carbonyl]amino}-butanoyl)amino]pentyl}-1,3-thiazol-4-yl)carbonyl]amino}bicyclo[1.1.1]pentane-1-carboxylate], the IC50 in data set [1] (72 h, read-out: MES SA, IC50) stood at 0.926 nM; in data set [1] (setting [5]), 0.926 nM; in data set [3] (72 h, read-out: HEK 293T, IC50), 0.355 nM; in data set [3] (setting [6]), 0.355 nM; in data set [4] (read-out: MES SA DX, IC50) it was 54.1 nM; in data set [4] (setting [7]) it was 54.1 nM. For the same molecule, the “cytotoxicity potency” value in data set [2] is recorded as “subnanomolar potencies against two of the cell lines tested”.

The values are drawn from patent US11274124B2, “Tubulysin analogues as anticancer agents and payloads for antibody-drug conjugates and methods of treatment therewith” (William Marsh Rice University, priority 2017, dated 2022).
